These results are taken from paper PMC7031403, “A molecular switch regulating transcriptional repression and activation of PPARγ” (Nature Communications, 2020).

SMILES strings stand for the structures.

What all share (test): Fluorescence polarization peptide interaction assay, NCoR ID2 peptide affinity, apo- or T0070907-bound wild type or mutant PPARγ LBD
What all share (assay type): binding

For assay [1], the target named is T1, PPARγ LBD (wild type or mutant) (Homo sapiens, UniProt P37231, D503A).
T1 construct: made in house; host or cells: Escherichia coli BL21(DE3)
T1 sequence (P37231 231-505 D503A): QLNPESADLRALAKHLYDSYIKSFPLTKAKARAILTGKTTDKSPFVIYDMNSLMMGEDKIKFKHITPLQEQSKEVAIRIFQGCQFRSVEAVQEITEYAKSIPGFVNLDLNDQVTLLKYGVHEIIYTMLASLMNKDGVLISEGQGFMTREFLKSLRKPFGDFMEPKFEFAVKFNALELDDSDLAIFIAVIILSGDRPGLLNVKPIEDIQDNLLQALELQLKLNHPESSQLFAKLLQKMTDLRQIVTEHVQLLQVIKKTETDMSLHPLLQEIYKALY
T1 sequence (O75376 2256-2278 partner): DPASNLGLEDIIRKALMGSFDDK
The settings on record: apo (DMSO) D475A PPARγ LBD; one site-total binding fit; read-out: NCoR ID2 peptide affinity, mean of fit (log scale) (converted). Here is the method:
(§1) Plates were incubated at 25 °C for 1 h, and fluorescence polarization was measured on a BioTek Synergy Neo multimode plate reader at […] wavelengths. Data were plotted using GraphPad Prism as fluorescence polarization signal in millipolarization units vs. protein concentration and fit to a one site—total binding equation.

Assay [2] concerns the target T2, PPARγ LBD (wild type or mutant) (Homo sapiens, UniProt P37231, D503R).
T2 construct: made in house; host or cells: Escherichia coli BL21(DE3)
The settings on record: apo (DMSO) D475R PPARγ LBD; one site-total binding fit; read-out: NCoR ID2 peptide affinity, mean of fit (log scale) (converted). Here is the method: as §1

Assay [3] deals with T3, PPARγ LBD (wild type or mutant) (Homo sapiens, UniProt P37231, E499A).
T3 construct: made in house; host or cells: Escherichia coli BL21(DE3)
T3 sequence (P37231 231-505 E499A): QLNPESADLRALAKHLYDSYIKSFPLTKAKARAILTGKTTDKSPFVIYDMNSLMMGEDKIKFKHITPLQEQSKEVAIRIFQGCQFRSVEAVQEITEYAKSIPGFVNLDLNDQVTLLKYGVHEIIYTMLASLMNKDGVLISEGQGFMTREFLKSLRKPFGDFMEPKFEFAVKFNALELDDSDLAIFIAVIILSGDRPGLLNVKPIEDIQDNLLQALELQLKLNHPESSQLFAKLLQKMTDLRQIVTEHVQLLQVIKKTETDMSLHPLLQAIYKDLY
The settings on record: apo (DMSO) E471A PPARγ LBD; one site-total binding fit; read-out: NCoR ID2 peptide affinity, mean of fit (log scale) (converted). The method, then: as §1

Assay [4] concerns the target T4, PPARγ LBD (wild type or mutant) (Homo sapiens, UniProt P37231, E499R).
T4 construct: made in house; host or cells: Escherichia coli BL21(DE3)
The settings on record: apo (DMSO) E471R PPARγ LBD; one site-total binding fit; read-out: NCoR ID2 peptide affinity, mean of fit (log scale) (converted). The method, then:
as §1

Assay [5] concerns the target T5, PPARγ LBD (wild type or mutant) (Homo sapiens, UniProt P37231, H351A).
T5 construct: made in house; host or cells: Escherichia coli BL21(DE3)
The settings on record: apo (DMSO) H323A PPARγ LBD; one site-total binding fit; read-out: NCoR ID2 peptide affinity, mean of fit (log scale) (converted). Here is the method:
as §1

The target of assay [6] is T6, PPARγ LBD (wild type or mutant) (Homo sapiens, UniProt P37231, H477A).
T6 construct: made in house; host or cells: Escherichia coli BL21(DE3)
T6 sequence (P37231 231-505 H477A): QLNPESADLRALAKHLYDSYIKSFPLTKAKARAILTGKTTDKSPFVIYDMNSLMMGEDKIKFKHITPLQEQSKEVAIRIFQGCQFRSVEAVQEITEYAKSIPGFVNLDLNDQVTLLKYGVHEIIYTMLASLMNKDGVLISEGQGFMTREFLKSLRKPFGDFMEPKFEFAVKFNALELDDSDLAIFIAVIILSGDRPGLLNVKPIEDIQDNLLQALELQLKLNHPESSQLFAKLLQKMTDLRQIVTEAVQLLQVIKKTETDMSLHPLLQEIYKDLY
The settings on record: apo (DMSO) H449A PPARγ LBD; one site-total binding fit; read-out: NCoR ID2 peptide affinity, mean of fit (log scale) (converted). Here is the method: as §1

In assay [7] the target is T7, PPARγ LBD (wild type or mutant) (Homo sapiens, UniProt P37231, K329A).
T7 construct: made in house; host or cells: Escherichia coli BL21(DE3)
T7 sequence (P37231 231-505 K329A): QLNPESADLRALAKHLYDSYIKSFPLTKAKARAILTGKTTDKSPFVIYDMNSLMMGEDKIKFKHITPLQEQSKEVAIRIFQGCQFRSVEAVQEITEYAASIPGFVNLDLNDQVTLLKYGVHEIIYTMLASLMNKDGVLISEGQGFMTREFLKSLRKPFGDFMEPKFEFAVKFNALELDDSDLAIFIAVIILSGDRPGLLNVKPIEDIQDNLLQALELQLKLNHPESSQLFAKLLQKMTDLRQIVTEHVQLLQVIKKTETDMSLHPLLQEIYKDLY
The settings on record: apo (DMSO) K301A PPARγ LBD; one site-total binding fit; read-out: NCoR ID2 peptide affinity, mean of fit (log scale) (converted). The method, then: as §1

Assay [8] deals with T8, PPARγ LBD (wild type or mutant) (Homo sapiens, UniProt P37231, K347A).
T8 construct: made in house; host or cells: Escherichia coli BL21(DE3)
The settings on record: apo (DMSO) K319A PPARγ LBD; one site-total binding fit; read-out: NCoR ID2 peptide affinity, mean of fit (log scale) (converted). Here is the method: as §1

For assay [9], the target named is T9, PPARγ LBD (wild type or mutant) (Homo sapiens, UniProt P37231, K395A).
T9 construct: made in house; host or cells: Escherichia coli BL21(DE3)
T9 sequence (P37231 231-505 K395A): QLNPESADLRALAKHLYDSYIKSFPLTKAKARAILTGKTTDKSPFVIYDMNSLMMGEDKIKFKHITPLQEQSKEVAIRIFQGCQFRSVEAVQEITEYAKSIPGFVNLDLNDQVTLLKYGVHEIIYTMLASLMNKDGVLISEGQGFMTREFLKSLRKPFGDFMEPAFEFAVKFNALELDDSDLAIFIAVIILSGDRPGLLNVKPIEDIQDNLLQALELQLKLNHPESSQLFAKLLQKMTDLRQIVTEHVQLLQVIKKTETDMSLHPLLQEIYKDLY
The settings on record: apo (DMSO) K367A PPARγ LBD; one site-total binding fit; read-out: NCoR ID2 peptide affinity, mean of fit (log scale) (converted). Here is the method: as §1

For assay [10], the target named is T10, PPARγ LBD (wild type or mutant) (Homo sapiens, UniProt P37231, M392A).
T10 construct: made in house; host or cells: Escherichia coli BL21(DE3)
T10 sequence (P37231 231-505 M392A): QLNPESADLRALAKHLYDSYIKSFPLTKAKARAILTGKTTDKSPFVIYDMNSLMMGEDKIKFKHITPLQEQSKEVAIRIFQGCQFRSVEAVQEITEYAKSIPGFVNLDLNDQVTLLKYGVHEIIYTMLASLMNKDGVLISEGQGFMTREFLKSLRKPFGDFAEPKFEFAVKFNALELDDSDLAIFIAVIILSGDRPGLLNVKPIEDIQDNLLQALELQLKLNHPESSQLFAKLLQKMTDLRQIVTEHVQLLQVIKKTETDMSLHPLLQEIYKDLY
The settings on record: apo (DMSO) M364A PPARγ LBD; one site-total binding fit; read-out: NCoR ID2 peptide affinity, mean of fit (log scale) (converted). Here is the method: as §1

Assay [11] deals with T11, PPARγ LBD (wild type or mutant) (Homo sapiens, UniProt P37231, N340A).
T11 construct: made in house; host or cells: Escherichia coli BL21(DE3)
T11 sequence (P37231 231-505 N340A): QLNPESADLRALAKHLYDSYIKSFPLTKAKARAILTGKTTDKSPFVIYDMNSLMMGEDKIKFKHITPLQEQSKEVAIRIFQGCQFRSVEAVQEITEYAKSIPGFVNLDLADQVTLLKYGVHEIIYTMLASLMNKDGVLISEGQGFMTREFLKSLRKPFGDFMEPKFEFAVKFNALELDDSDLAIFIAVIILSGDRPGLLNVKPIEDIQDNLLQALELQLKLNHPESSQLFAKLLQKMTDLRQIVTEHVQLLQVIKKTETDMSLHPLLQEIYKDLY
The settings on record: apo (DMSO) N312A PPARγ LBD; one site-total binding fit; read-out: NCoR ID2 peptide affinity, mean of fit (log scale) (converted). Here is the method: as §1

Assay [12] concerns the target T12, PPARγ LBD (wild type or mutant) (Homo sapiens, UniProt P37231, Q314A).
T12 construct: made in house; host or cells: Escherichia coli BL21(DE3)
The settings on record: apo (DMSO) Q286A PPARγ LBD; one site-total binding fit; read-out: NCoR ID2 peptide affinity, mean of fit (log scale) (converted). Here is the method: as §1

In assay [13] the target is T13, PPARγ LBD (wild type or mutant) (Homo sapiens, UniProt P37231, Q322A).
T13 construct: made in house; host or cells: Escherichia coli BL21(DE3)
T13 sequence (P37231 231-505 Q322A): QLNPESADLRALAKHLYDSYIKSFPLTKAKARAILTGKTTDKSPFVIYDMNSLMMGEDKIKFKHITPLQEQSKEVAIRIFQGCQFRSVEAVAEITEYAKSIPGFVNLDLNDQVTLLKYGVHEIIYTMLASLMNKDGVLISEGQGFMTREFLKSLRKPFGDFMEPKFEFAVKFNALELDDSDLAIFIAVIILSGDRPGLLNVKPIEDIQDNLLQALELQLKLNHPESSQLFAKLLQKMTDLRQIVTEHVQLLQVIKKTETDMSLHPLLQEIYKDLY
The settings on record: apo (DMSO) Q294A PPARγ LBD; one site-total binding fit; read-out: NCoR ID2 peptide affinity, mean of fit (log scale) (converted). The method, then:
as §1

Assay [14] deals with T14, PPARγ LBD (wild type or mutant) (Homo sapiens, UniProt P37231, Q342A).
T14 construct: made in house; host or cells: Escherichia coli BL21(DE3)
T14 sequence (P37231 231-505 Q342A): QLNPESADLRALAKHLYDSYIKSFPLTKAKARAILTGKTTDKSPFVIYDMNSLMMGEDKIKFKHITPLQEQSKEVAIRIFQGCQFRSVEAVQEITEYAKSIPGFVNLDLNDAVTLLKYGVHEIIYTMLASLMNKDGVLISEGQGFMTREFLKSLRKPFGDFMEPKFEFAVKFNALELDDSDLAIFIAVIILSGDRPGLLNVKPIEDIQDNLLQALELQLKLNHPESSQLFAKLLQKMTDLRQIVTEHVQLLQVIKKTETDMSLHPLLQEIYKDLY
The settings on record: apo (DMSO) Q314A PPARγ LBD; one site-total binding fit; read-out: NCoR ID2 peptide affinity, mean of fit (log scale) (converted). The method, then: as §1

The target of assay [15] is T15, PPARγ LBD (wild type or mutant) (Homo sapiens, UniProt P37231, R308A).
T15 construct: made in house; host or cells: Escherichia coli BL21(DE3)
The settings on record: apo (DMSO) R280A PPARγ LBD; one site-total binding fit; read-out: NCoR ID2 peptide affinity, mean of fit (log scale) (converted). Here is the method: as §1

Assay [16] addresses T16, PPARγ LBD (wild type or mutant) (Homo sapiens, UniProt P37231, R316A).
T16 construct: made in house; host or cells: Escherichia coli BL21(DE3)
The settings on record: apo (DMSO) R288A PPARγ LBD; one site-total binding fit; read-out: NCoR ID2 peptide affinity, mean of fit (log scale) (converted). Here is the method: as §1

Assay [17] addresses T17, PPARγ LBD (wild type or mutant) (Homo sapiens, UniProt P37231, Y355A).
T17 construct: made in house; host or cells: Escherichia coli BL21(DE3)
The settings on record: apo (DMSO) Y327A PPARγ LBD; one site-total binding fit; read-out: NCoR ID2 peptide affinity, mean of fit (log scale) (converted). Here is the method: as §1

The target of assay [18] is T18, PPARγ LBD (wild type or mutant) (Homo sapiens, UniProt P37231, Y505A).
T18 construct: made in house; host or cells: Escherichia coli BL21(DE3)
T18 sequence (P37231 231-505 Y505A): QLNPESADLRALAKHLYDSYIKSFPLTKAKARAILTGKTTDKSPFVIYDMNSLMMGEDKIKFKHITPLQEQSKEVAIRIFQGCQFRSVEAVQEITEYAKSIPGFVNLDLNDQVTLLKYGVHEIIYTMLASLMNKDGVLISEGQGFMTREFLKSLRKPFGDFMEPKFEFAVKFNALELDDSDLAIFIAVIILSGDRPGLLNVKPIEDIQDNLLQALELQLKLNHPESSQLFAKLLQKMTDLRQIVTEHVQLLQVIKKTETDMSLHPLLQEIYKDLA
The settings on record: apo (DMSO) Y477A PPARγ LBD; one site-total binding fit; read-out: NCoR ID2 peptide affinity, mean of fit (log scale) (converted). Here is the method:
as §1

T5 sequence (P37231 231-505 H351A): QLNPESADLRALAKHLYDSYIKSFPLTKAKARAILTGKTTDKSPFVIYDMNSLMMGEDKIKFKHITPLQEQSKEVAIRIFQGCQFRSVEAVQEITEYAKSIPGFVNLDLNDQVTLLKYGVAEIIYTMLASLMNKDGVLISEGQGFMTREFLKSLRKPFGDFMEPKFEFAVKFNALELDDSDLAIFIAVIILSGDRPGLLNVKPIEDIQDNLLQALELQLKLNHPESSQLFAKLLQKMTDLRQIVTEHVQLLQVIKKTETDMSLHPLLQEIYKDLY
T16 sequence (P37231 231-505 R316A): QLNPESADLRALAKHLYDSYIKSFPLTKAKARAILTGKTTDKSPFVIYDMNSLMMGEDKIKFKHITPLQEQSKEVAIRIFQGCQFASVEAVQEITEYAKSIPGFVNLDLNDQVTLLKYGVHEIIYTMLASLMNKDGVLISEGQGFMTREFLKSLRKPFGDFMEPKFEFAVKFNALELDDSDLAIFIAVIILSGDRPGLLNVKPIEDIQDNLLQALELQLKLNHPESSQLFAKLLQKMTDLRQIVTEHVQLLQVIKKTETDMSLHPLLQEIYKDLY
T17 sequence (P37231 231-505 Y355A): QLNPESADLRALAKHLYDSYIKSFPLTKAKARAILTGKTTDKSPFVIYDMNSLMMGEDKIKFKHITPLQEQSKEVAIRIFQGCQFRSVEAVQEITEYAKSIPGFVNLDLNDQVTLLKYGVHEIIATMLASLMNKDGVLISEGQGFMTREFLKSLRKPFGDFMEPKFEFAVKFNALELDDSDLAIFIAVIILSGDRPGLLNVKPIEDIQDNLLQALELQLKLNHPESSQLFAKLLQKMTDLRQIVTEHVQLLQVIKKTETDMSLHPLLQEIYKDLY
T2 sequence (P37231 231-505 D503R): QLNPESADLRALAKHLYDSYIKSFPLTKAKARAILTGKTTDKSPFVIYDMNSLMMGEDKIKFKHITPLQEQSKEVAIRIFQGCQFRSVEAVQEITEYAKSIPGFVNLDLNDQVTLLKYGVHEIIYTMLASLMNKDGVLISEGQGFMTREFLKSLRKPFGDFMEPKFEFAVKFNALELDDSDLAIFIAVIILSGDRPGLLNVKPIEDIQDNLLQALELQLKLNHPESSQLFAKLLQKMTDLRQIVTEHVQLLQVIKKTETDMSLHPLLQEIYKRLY
T12 sequence (P37231 231-505 Q314A): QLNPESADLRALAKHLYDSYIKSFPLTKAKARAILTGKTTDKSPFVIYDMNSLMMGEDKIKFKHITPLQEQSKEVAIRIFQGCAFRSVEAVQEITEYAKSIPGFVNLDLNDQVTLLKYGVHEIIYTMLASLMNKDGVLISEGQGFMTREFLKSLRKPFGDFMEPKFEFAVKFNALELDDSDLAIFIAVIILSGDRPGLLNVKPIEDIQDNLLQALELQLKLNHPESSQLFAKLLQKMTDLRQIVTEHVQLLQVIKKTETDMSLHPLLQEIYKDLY

`CC[C@H](C)[C@H](NC(=O)[C@H](CC(=O)O)NC(=O)[C@H](CCC(=O)O)NC(=O)[C@H](CC(C)C)NC(=O)CNC(=O)[C@H](CC(C)C)NC(=O)[C@H](CC(N)=O)NC(=O)[C@H](CO)NC(=O)[C@H](C)NC(=O)[C@@H]1CCCN1C(=O)[C@H](CC(=O)O)NC(=O)CCCCCNC(=S)Nc1ccc2c(c1)C(=O)OC21c2ccc(O)cc2Oc2cc(O)ccc21)C(=O)N[C@H](C(=O)N[C@@H](CCCNC(=N)N)C(=O)N[C@@H](CCCCN)C(=O)N[C@@H](C)C(=O)N[C@@H](CC(C)C)C(=O)N[C@@H](CCSC)C(=O)NCC(=O)N[C@@H](CO)C(=O)N[C@@H](Cc1ccccc1)C(=O)N[C@@H](CC(=O)O)C(=O)N[C@@H](CC(=O)O)C(=O)N[C@@H](CCCCN)C(N)=O)[C@@H](C)CC` [NCoR-D2]: the Kd is 621 nM in assay [1]; 522 nM in [2]; 525 nM in assay [3]; 348 nM in [4]; 621 nM in assay [5]; 1490 nM in assay [6]. Moreover, the Kd was 4930 nM in [7]; 2580 nM in [8]; 1080 nM in [9]; 38700 nM in assay [10]; 1410 nM in assay [11]; 807 nM in assay [12]. Also, the Kd in assay [13] was 2420 nM; in assay [14], 867 nM; in [15] it was 766 nM; in assay [16] it was 1200 nM; in [17], 590 nM; in assay [18], 822 nM.
